How the values were obtained:
caspase-8 = assay: Caspase-Glo luminescent caspase activity in HCLE under hyperosmotic stress; format: cell-based, human; conditions: 16 h; for reduction of caspase-8 activity: 500 mOsm
Method: (§1) Caspase-3/7, -8 and -9 activities were assayed using a luminescent assay kit (Promega, Madison, Wis.) according to the manufacturer's instructions. Briefly, 100 μL of Caspase-Glo-3/7, -8 and -9 reagents were added to HCLE at maintained on plastic at 2×10^4/cm^2, mixed and incubated for one hour at room temperature. Luminescence was measured using a SpectraFluor Plus microplate reader.
(§2) Cultured human corneal limbal epithelial (HCLE) cells were exposed to culture medium with or without carnitine (10 mM) at 300 mOsm (isotonic), 450 mOsm (moderate), and 500 mOsm (hyperosmotic) for 16 h. Induction of apoptosis was detected by quantification of the proteolytic activity of caspase-8, caspase-9, or caspase-3/7 using caspase activity assays, and production of tumor necrosis factor (TNF)-α, a known apoptosis inducer, using ELISA. Annexin V and Propidium iodine (PI) staining was performed to detect the percentage of apoptotic cells using confocal microscopy and flow cytometry.

HCLE cells [1] = assay: Annexin V/PI/Hoechst staining, confocal microscopy, damaged cells; format: cell-based, human; conditions: 500 mOsm + 10 mM, 16 h
Method: Cells undergoing apoptosis or necrosis were identified using Alexa Fluor 488 annexin V/Dead cell apoptosis assay (Invitrogen-Molecular probe) with some modifications. Cells were seeded at 6.5×10^4 cells mL^−1 in 75 cm^2 cell culture flask and incubated overnight. Once the cells reached 70%-80% confluence, they were subjected to different osmolarity treatments for 16 hours. Supernatants were removed and retained for collection of non-adherent cells. Adherent cells were rinsed twice with PBS and detached using 0.05% trypsin. The culture supernatant and trypsin digests were pelleted, rinsed twice in PBS, and combined during resuspenison in annexin-binding buffer. Five microlitres of Alexa Fluor 488 annexin V, 12.5 μg mL^−1 of Hoechst 33342 and 1 μg mL^−1 of propidium iodide (PI) were added to 100 μL of cell suspension containing approximately 1×10^5 cells and incubated at room temperature for 15 minutes. Cells were washed with 200 μL of annexin-binding buffer and deposited onto coverslips. […] Cells stained with annexin V, PI or Hoechst for apoptotic, necrotic or total cells, respectively, were quantified for each image using ImageJ (http://rsbweb.nih.gov/ij/; National Institutes of Health, Bethesda, Md.) to obtain an average value for each treatment.

HCLE cells [2] = assay: Flow cytometry cell volume (shrunken cells) under hyperosmotic stress; format: cell-based, human; conditions: 16 h; for population of shrunken cells: 500 mOsm + 10 mM, flow cytometry
From the text: Forward scatter of the laser light produced by the flow cytometer is proportional to the volume of the cell. This principle was used to analyse the osmoprotective effect of betaine in restoring the cell volume which is adversely affected due to hypertonicity. Cell populations were gated such that the population of cells showing a greater forward scatter (FSC) constituted the percentage of cells with a volume equal to that of a cell under isotonic conditions. On the other hand, the proportion of side scatter in a flow cytometer represents the cell structure complexity and granularity. […] Cells were exposed to isotonic media (300 mOsM), hyperosmotic media (500 mOsM) and hyperosmotic media containing betaine (500 mOsM media+10 mM betaine) for 16 h after which they were analysed using flow cytometer.
(§3) Cell volume and Live/Dead staining via flow cytometry were performed using the Attune® Acoustic focusing Cytometer (Life Technologies™ Applied Biosystems). Annexin V and PI kit (Invitrogen™) was used to analyse the non-apoptotic, and the early and late apoptotic cells. Staining was performed as per manufacturer's instructions. Analysis of Annexin staining was conducted using the blue/violet laser with excitation/emission spectra of 480/500 nm (20 mW) and the PI staining analysis was conducted using blue/red laser with an excitation/emission spectra of 490/635 nm.
Cultured HCLE cells were exposed to culture medium with or without carnitine (10 mM) at 300 mOsm (isotonic) and 500 mOsm (hyperosmotic) for 16 h. Flow cytometry was performed to determine the cell volume changes based on the forward and side scatter values detected.

caspase-3/7 = assay: Caspase-Glo luminescent caspase activity in HCLE under hyperosmotic stress; format: cell-based, human; conditions: 16 h
Method: as §1
as §2, with “Cultured human corneal limbal epithelial (HCLE) cells were exposed to culture medium with or without carnitine (10 mM) at 300 mOsm (isotonic), 450 mOsm (moderate), and 500 mOsm (hyperosmotic) for 16 h.” left out

caspase-9 = assay: as above; format: cell-based, human; conditions: 16 h
Method: as §1
as §2, with “Cultured human corneal limbal epithelial (HCLE) cells were exposed to culture medium with or without carnitine (10 mM) at 300 mOsm (isotonic), 450 mOsm (moderate), and 500 mOsm (hyperosmotic) for 16 h.” left out

TNF-α = TNF-α production by HCLE cells in hyperosmolar medium (ELISA); format: cell-based, human; conditions: 10 mM, 500 mOsm, 16 h, vs hyperosmolar medium without osmolyte
Method: Enzyme-linked immunosorbent assay (ELISA) was used to quantify TNF-α. The culture supernatants were collected, centrifuged at 1500 rpm for 10 min to remove cellular debris and stored at −80° C. until processed. Assays were performed according to manufacturer's protocol (R&D Systems, Minneapolis, Minn.).
as §2

HCLE cells [3] = assay: Flow cytometry Annexin V/PI apoptosis/necrosis under hyperosmotic stress; format: cell-based, human; conditions: 16 h; for percentage of healthy cells (Annexin V and PI negative): 500 mOsm + 10 mM vs 500 mOsm; for total percentage of apoptotic and necrotic (damaged) cells: 500 mOsm + 10 mM, flow cytometry
Method: as §3
500 mOsm and exposure time (16 h) to be the most informative under which to observe hyperosmolality induced cellular responses of HCLE (results not shown). Thus, in the present study, a hyperosmotic medium of 500 mOsm and exposure time of 16 h were used throughout. Hyperosmolar media were prepared by the addition of NaCl to the medium. Medium osmolarity was measured using a Vapro 5520 vapour pressure osmometer (Wescor, Logan, Utah). Subconfluent cells were exposed to hyperosmolar media in the presence or absence of betaine (5 or 10 mM). Mitochondrial and proliferation activities for cell viability; TNF-α production; caspase activity and Annexin V/PI staining for apoptosis; and cellular shrinkage were monitored as detailed below.
It was observed that an osmolarity of 450 mOsM and 500 mOsM and exposure time of 16 hours was the most optimal for studying hyperosmolarity induced cellular responses of HCLE (results not shown). Therefore, a hyperosmolar medium of 450 mOsM and 500 mOsM and an exposure time of 16 hours were used throughout the study. The hyperosmolarity of the medium was achieved by addition of an appropriate amount of NaCl to it, and further measuring using Vapro 5520 vapor pressure osmometer (Wescor, Logan, Utah). Cells, having reached 70%-80% confluence were exposed to hyperosmolar media in the presence or absence of 10 mM L-Carnitine. Cellular shrinkage in relation to hyperosmotic stress, Annexin V/PI staining for apoptosis, Caspase activities and TNF-α production were analysed.
as §2

[4] = system: human corneal epithelial cell; assay: Evaporative drying culture model, Annexin V/PI apoptotic/necrotic cells; format: cell-based; conditions: 0.25% in culture medium, 4 hrs evaporative drying, 34° C.
Method: A in vitro human corneal epithelial cell culture model was used where cells were cultured under a slow drying condition with the culture medium slowly evaporated over the time period of 4-4.5 hours at 34° C. (the temperature of human eyes) to mimic tear film evaporation.

| Structure (SMILES) | reduction of caspase-8 activity (caspase-8; 5 mM) | reduction of caspase-8 activity (caspase-8; 10 mM) | percentage of damaged cells (of the total cells) (HCLE cells [1]) [%] | percentage of healthy (normal volume) cells (HCLE cells [2]; 500 mOsm + 10 mM vs 500 mOsm) | population of shrunken cells (HCLE cells [2]) [%] | reduction of caspase-3/7 activity (caspase-3/7; 5 mM, 500 mOsm) | reduction of caspase-3/7 activity (caspase-3/7; 10 mM, 500 mOsm) | reduction of caspase-9 activity (caspase-9; 5 mM, 500 mOsm) | reduction of caspase-9 activity (caspase-9; 10 mM, 500 mOsm) | reduction in TNF-α levels (TNF-α) [%] | percentage of healthy cells (Annexin V and PI negative) (HCLE cells [3]) | total percentage of apoptotic and necrotic (damaged) cells (HCLE cells [3]) [%] | change in Caspase-8 activity (in words) (caspase-8; 10 mM, hypertonic medium) | population of shrunken cells (HCLE cells [2]; listed as L-Carnitine) [%] | cellular damage (apoptotic and necrotic cells) caused by evaporation-increased osmolarity [4] | decreasing trend for caspase-3/7 activities (caspase-3/7; 10 mM, 500 mOsm) [%] | change in Caspase-3/7 activity (in words) (caspase-3/7; 10 mM, hypertonic medium) | reduction in cellular caspase-9 activities (caspase-9; 10 mM, 500 mOsm) [%] | change in Caspase-9 activity (in words) (caspase-9; 10 mM, hypertonic medium) | increase in the percentage of un-damaged (non-apoptotic/non-necrotic) cells (HCLE cells [3]; 10 mM, 500 mOsm, vs hyperosmotically stressed HCLE) [%] |
| --- | --- | --- | --- | --- | --- | --- | --- | --- | --- | --- | --- | --- | --- | --- | --- | --- | --- | --- | --- | --- |
| C[N+](C)(C)CC(=O)[O-] [betaine, trimethylglycine] | 2- to 3 fold | 4- to 5.2 fold | 7.5 | significantly increased | 11.01 | 2- to 3 fold | 4- to 5.2 fold | 2- to 3 fold | 4- to 5.2 fold | 40 | considerable increase | 15.70 |  |  |  |  |  |  |  |  |
| C[N+](C)(C)CC(O)CC(=O)[O-] (stereo not drawn) [carnitine, 3-hydroxy-4-(trimethylazaniumyl)butanoate] |  |  |  |  | ~15 |  |  |  |  | 25 | increased | ~19.0 | minimum or no visible decline | 18.01 | minimised the cellular damage | 20 | significant lowering | 33 | significant lowering | 63 |
